This test addresses Autotaxin (Homo sapiens, UniProt Q13822). Nature of the test: Quanta Red Assay: Measuring ATX activity using an enzyme coupled Quanta Red assay (Thermo Scientific Pierce Protein Research Products, Product #15159) was determined as follows. 8 μL human recombinant ATX (final concentration 0.8 μg/mL) in 1× Assay buffer containing 50 mM Tris-HCl (pH 8.0), 5 mM CaCl2 was added to an opaque black flat-bottom 384-well plate (Corning, #3575) containing 2 μL test compound in 40% DMSO (4% final DMSO concentration). 10 μL of Quanta Red, Horseradish peroxidase (HRP), Choline Oxidase (CO), Rac-1-Palmitoyl-glycero-3-phosphocholine solution (final concentration 1:250 for Quanta Red, 0.5units/ml HRP, 0.5units/ml CO, 15 μM Rac-1-Palmitoyl-glycero-3-phosphocholine) in 1× assay buffer (as described previously) was added to each well to start the reaction and the plate was incubated at room temperature for 2 hours. The reaction was stopped after 2 hours with a 20 μL addition of Quanta Red Stop solution (1:20 dilution in distilled water). The above-described mixture with DMSO alone was used as a positive control whereas that with DMSO alone without ATX was taken as a negative control. For each test compound, ten concentrations were measured covering a range of 6.1 nM to 120 μM to determine IC50 values. The top concentration was decreased to 1.2 μM when a test compound's IC50 value was evaluated in low nanomolar range. Fluorescence was determined in a BMG Labtech Pherastar plus plate reader (λ emission=540 nm, λ excitation=590 nm). Data were analysed using Excel fit software.

For orientation: IC50 means the midpoint of a concentration-inhibition curve.

In the case of `CCC(C)CCc1nnc(NC(=O)C2CC(=O)N(c3ccc(CN4CCOCC4)cc3)C2)s1` (stereo not drawn), the IC50 worked out at 11 nM.

Consider `O=C(Nc1cc(CCc2ccc(Cl)cc2)[nH]n1)C1CC(=O)N(c2ccc(CN3CCOCC3)cc2)C1` (stereo not drawn), for which the IC50 is 5 nM. As for `O=C(Nc1nnc(CCC2CCCC2)s1)C1CC(=O)N(c2ccc(CN3CCOCC3)cc2)C1` (stereo not drawn), the IC50 was 3 nM.

Turning to `CCCN(CC)Cc1ccc(N2CC(C(=O)Nc3nnc(CCc4ccc(Cl)cc4)s3)CC2=O)cc1` (stereo not drawn), the IC50 was found to be 4 nM. With `O=C(Nc1nnc(CCC2CCOCC2)s1)C1CC(=O)N(c2ccc(CN3CCOCC3)cc2)C1` (stereo not drawn), the IC50 was 358 nM. As to `O=C1CN(Cc2ccc(N3C[C@H](NC(=O)c4nnc(CCc5ccc(Cl)cc5)s4)CC3=O)cc2)CCN1`, the IC50 came to 8 nM.

As to `CN1CCN(Cc2ccc(N3C[C@H](NC(=O)c4nnc(CCc5ccc(Cl)cc5)s4)CC3=O)cc2)CC1`, the half-maximal inhibitory concentration (IC50) worked out at 124 nM. The same measure for `CCCN(C)Cc1ccc(N2CC(C(=O)Nc3nnc(CCc4ccc(Cl)cc4)s3)CC2=O)cc1` (stereo not drawn): 3 nM.

Source of the values: ChEMBL document CHEMBL5725945, “Autotaxin inhibitors” (2018).
